# Results reported in patent US20250025443A1, “COMPOUNDS AND METHODS FOR TREATING CORONA VIRUSES” (CLEAR CREEK BIO, INC., priority 2021, published 2025).
# Target: SARS-CoV-2 Papain-Like Protease (PLpro) (Severe acute respiratory syndrome coronavirus 2 (2019-nCoV) (SARS-CoV-2), UniProt P0DTD1)
# Experiment: biochemical
# Conditions: PLpro 6.25 nM, substrate 25 μM, 60 min at 25° C.; for more potent compounds PLpro 1 nM, 120 min; read-out: PLpro IC50
row,Structure (SMILES),IC50 [nM]
1,"CC(=O)c1ccc(C)c(C(=O)N[C@H](C)c2cccc3ccccc23)c1 [Compound 155, (R)-5-Acetyl-2-methyl-N-(1-(naphthalen-1-yl)ethyl)benzamide]",> 5000

# Same assay, conditions: PLpro enzymatic fluorescence assay; class symbols; read-out: PLpro IC50
row,Structure (SMILES),IC50 [nM]
1,COc1cc(C2(NC(=O)c3cc(OC[C@@H]4CC[C@@H]5CN(C(=O)OC(C)(C)C)CCN54)ccc3C)CC2)c2cccnc2c1 [Compound 775],< 100
2,"Cc1ccc(OC[C@@H]2CCN2)cc1C(=O)NC1(c2cc(-c3cncc(N4CCOCC4)c3)cc3ncccc23)CC1 [Compound 689, (S)-5-(Azetidin-2-ylmethoxy)-2-methyl-N-(1-(7-(5-morpholinopyridin-3-yl)quinolin-5-yl)cyclopropyl)benzamide]",< 100
3,"Cc1ccc(OC[C@@H]2CCN2)cc1C(=O)NC1(c2cc(-c3cnn(C)c3)cc3ncccc23)CC1 [Compound 665, (S)-5-(Azetidin-2-ylmethoxy)-2-methyl-N-(1-(7-(1-methyl-1H-pyrazol-4-yl)quinolin-5-yl)cyclopropyl)benzamide]",< 100
4,"[2H]C1([2H])C([2H])([2H])C1(NC(=O)c1cc(OC[C@@H]2CCN2C)ccc1C)c1cc(OC)cc2nc(C)ccc12 [Compound 804, (S)—N-(1-(7-Methoxy-2-methylquinolin-5-yl)cyclopropyl-2,2,3,3-d)-2-methyl-5-((1-methylazetidin-2-yl)methoxy)benzamide]",< 100
5,"CCc1cc(C2(NC(=O)c3cc(OCC4CCN4C)ccc3C)CC2)c2ccccc2c1 (stereo not shown) [Compound 516, N-(1-(3-Ethylnaphthalen-1-yl)cyclopropyl)-2-methyl-5-((1-methylazetidin-2-yl)methoxy)benzamide]",< 100
6,"Cc1ccc(OC[C@@H]2CCN2C)cc1C(=O)NC1(c2cc(-c3ccc(=O)[nH]c3)cc3ncccc23)CC1 [Compound 672, (S)-2-Methyl-5-((1-methylazetidin-2-yl)methoxy)-N-(1-(7-(6-oxo-1,6-dihydropyridin-3-yl)quinolin-5-yl)cyclopropyl)benzamide]",< 100
7,"Cc1ccc2c(C3(NC(=O)c4cc(OC[C@@H]5CCN5C)ccc4C)CC3)cc(OCF)cc2n1 [Compound 823, (S)—N-(1-(7-(Fluoromethoxy)-2-methylquinolin-5-yl)cyclopropyl)-2-methyl-5-((1-methylazetidin-2-yl)methoxy)benzamide]",< 100
8,"COc1cc2c(C3(NC(=O)c4cc(OCC5CCN5C)ccc4C)CC3)cccc2cn1 (stereo not shown) [Compound 456, N-(1-(3-Methoxyisoquinolin-5-yl)cyclopropyl)-2-methyl-5-((1-methylazetidin-2-yl)methoxy)benzamide]",< 100
9,"Cc1ccc(OC[C@@H]2CCN2C)cc1C(=O)NC1(c2cc(-c3ccco3)cc3ncccc23)CC1 (stereo in doubt) [Compound 604, N-(1-(7-(Furan-2-yl)quinolin-5-yl)cyclopropyl)-2-methyl-5-((1-methylazetidin-2-yl)methoxy)benzamide]",< 100
10,"COc1cc(C2(NC(=O)c3cc(OC[C@H]4C[C@H](F)CN4)ccc3C)CC2)c2ccccc2c1 [Compound 510, 5-(((2R,4S)-4-Fluoropyrrolidin-2-yl)methoxy)-N-(1-(3-methoxynaphthalen-1-yl)cyclopropyl)-2-methylbenzamide]",< 100
11,"COCCOc1cc(C2(NC(=O)c3cc(OC[C@@H]4CCN4C)ccc3C)CC2)c2cccnc2c1 [Compound 591, (S)-N-(1-(7-(2-Methoxyethoxy)quinolin-5-yl)cyclopropyl)-2-methyl-5-((1-methylazetidin-2-yl)methoxy)benzamide]",< 100
12,"Cc1ccc(OCC(C)N)cc1C(=O)NC1(c2cc(-c3ccc(F)cc3)cc3ccccc23)CC1 (stereo not shown) [Compound 480, 5-(2-Aminopropoxy)-N-(1-(3-(4-fluorophenyl)naphthalen-1-yl)cyclopropyl)-2-methylbenzamide]",< 100
13,"Cc1ccc2c(C3(NC(=O)c4cc(OC[C@@H]5CCN5C)ccc4C)CC3)cc(NCC(F)(F)F)cc2n1 [Compound 826, (S)-2-Methyl-N-(1-(2-methyl-7-((2,2,2-trifluoroethyl)amino)quinolin-5-yl)cyclopropyl)-5-((1-methylazetidin-2-yl)methoxy)benzamide]",< 100
14,"COc1cc(C2(NC(=O)c3cc(OCc4ccccn4)ccc3C)CC2)c2cccnc2c1 [Compound 562, N-(1-(7-Methoxyquinolin-5-yl)cyclopropyl)-2-methyl-5-(pyridin-2-ylmethoxy)benzamide]",100 to 1000
15,"C#Cc1cc(C2(NC(=O)c3cc(OC[C@@H]4CCN4C)ccc3C)CC2)c2cccnc2c1 [Compound 620, (S)-N-(1-(7-Ethynylquinolin-5-yl)cyclopropyl)-2-methyl-5-((1-methylazetidin-2-yl)methoxy)benzamide]",< 100
16,"Cc1ccc(OCC2CCN2C)cc1C(=O)NC1(c2c3ccccc3cc3ccccc23)CC1 (stereo not shown) [Compound 507, N-(1-(Anthracen-9-yl)cyclopropyl)-2-methyl-5-((1-methylazetidin-2-yl)methoxy)benzamide]",100 to 1000
17,"Cc1ccc(OC[C@@H]2CCN2)cc1C(=O)NC1(c2cc(-c3ccc4nccn4c3)cc3ncccc23)CC1 [Compound 686, (S)-5-(Azetidin-2-ylmethoxy)-N-(1-(7-(imidazo[1,2-a]pyridin-6-yl)quinolin-5-yl)cyclopropyl)-2-methylbenzamide]",< 100
18,"COc1cccc(C2(NC(=O)c3cc(OCCN(C)C)ccc3C)CC2)c1 [Compound 278, 5-(2-(Dimethylamino)ethoxy)-N-(1-(3-methoxyphenyl)cyclopropyl)-2-methylbenzamide]",> 5000
19,"Cc1ccc(OC[C@@H]2CCN2C)cc1C(=O)NC1(c2cc(C#N)cc3ncccc23)CC1 [Compound 738, (S)-N-(1-(7-cyanoquinolin-5-yl)cyclopropyl)-2-methyl-5-((1-methylazetidin-2-yl)methoxy)benzamide]",< 100

# Same assay, conditions: SARS-CoV-2 PLpro enzymatic fluorescence assay; read-out: PLpro IC50
row,Structure (SMILES),IC50 [nM]
1,"COc1cc(C2(NC(=O)c3cc(OC[C@@H]4C[C@@H](F)CN4)ccc3C)CC2)c2ccccc2c1 [Compound 490, 5-(((2S,4R)-4-Fluoropyrrolidin-2-yl)methoxy)-N-(1-(3-methoxynaphthalen-1-yl)cyclopropyl)-2-methylbenzamide]",< 100
2,"Cc1ccc(NC2CNC2)cc1C(=O)NC1(c2cccc(-c3ccc(CN[C@H]4CC[C@@H](O)C4)s3)c2)CC1 [Compound 196, 5-(Azetidin-3-ylamino)-N-(1-(3-(5-((((1S,3R)-3-hydroxycyclopentyl)amino)methyl)thiophen-2-yl)phenyl)cyclopropyl)-2-methylbenzamide]",100 to 1000
3,"Cc1ccc(N2CCCNCC2)cc1C(=O)NC1(c2cccc3ccccc23)CC1 [Compound 411, 5-(1,4-Diazepan-1-yl)-2-methyl-N-(1-(naphthalen-1-yl)cyclopropyl)benzamide]",< 100
4,"COc1cc(C2(NC(=O)c3cc(OC[C@H](C)N)ccc3C)CC2)c2cccnc2c1 [Compound 530, (S)-5-(2-Aminopropoxy)-N-(1-(7-methoxyquinolin-5-yl)cyclopropyl)-2-methylbenzamide]",< 100
5,"Cc1cc2cn[nH]c2cc1C(=O)N[C@H](C)c1cccc2ccccc12 [Compound 142, (R)-5-Methyl-N-(1-(naphthalen-1-yl)ethyl)-1H-indazole-6-carboxamide]",100 to 1000
6,"Cc1cc(C2(NC(=O)c3cc(OC[C@@H]4CCN4C)ccc3C)CC2)c2cccnc2c1 [Compound 581, (S)-2-Methyl-5-((1-methylazetidin-2-yl)methoxy)-N-(1-(7-methylquinolin-5-yl)cyclopropyl)benzamide]",< 100
7,"Cc1ccc(OCC2CCN2C)cc1C(=O)NC1(c2cc(O)cc3ccccc23)CC1 (stereo not shown) [Compound 433, N-(1-(3-Hydroxynaphthalen-1-yl)cyclopropyl)-2-methyl-5-((1-methylazetidin-2-yl)methoxy)benzamide]",< 100
8,"Cc1ccc(OCCN(C)C)cc1C(=O)NC1(c2cccc(Br)c2)CC1 [Compound 261, N-(1-(3-Bromophenyl)cyclopropyl)-5-(2-(dimethylamino)ethoxy)-2-methylbenzamide]",1000 to 5000
9,"Cc1cc2ccn(C3CN(C)C3)c2cc1C(=O)NC1(c2cccc3ccccc23)CC1 [Compound 290, 5-Methyl-1-(1-methylazetidin-3-yl)-N-(1-(naphthalen-1-yl)cyclopropyl)-1H-indole-6-carboxamide]",< 100
10,"Cc1ccc(OCCN(C)C)cc1C(=O)NC1(c2cccc3cccnc23)CC1 [Compound 388, 5-(2-(Dimethylamino)ethoxy)-2-methyl-N-(1-(quinolin-8-yl)cyclopropyl)benzamide]",< 100
11,"Cc1ccc(OCCN(C)C)cc1C(=O)NC1(c2cc(O)cc3ccccc23)CC1 [Compound 345, 5-(2-(Dimethylamino)ethoxy)-N-(1-(3-hydroxynaphthalen-1-yl)cyclopropyl)-2-methylbenzamide]",< 100
12,Cc1ccc(N(C)CCN(C)C)cc1C(=O)NC1(c2cccc3ccccc23)CC1 [Compound 421],< 100
13,"Cc1ccc(OC[C@@H]2CCN2C)cc1C(=O)NC1(c2cc(N)cc3ncccc23)CC1 [Compound 729, (S)-N-(1-(7-Aminoquinolin-5-yl)cyclopropyl)-2-methyl-5-((1-methylazetidin-2-yl)methoxy)benzamide]",< 100
14,"Cc1ccc(NS(C)(=O)=O)cc1C(=O)N[C@H](C)c1cccc2ccccc12 [Compound 100, (R)-2-Methyl-5-(methylsulfonamido)-N-(1-(naphthalen-1-yl)ethyl)benzamide]",> 5000
15,"Cc1ccc(OCCN(C)C)cc1C(=O)NC1(c2cccc3sccc23)CC1 [Compound 356, N-(1-(Benzo[b]thiophen-4-yl)cyclopropyl)-5-(2-(dimethylamino)ethoxy)-2-methylbenzamide]",< 100
16,"CNCCc1cc2cc(C)c(C(=O)NC3(c4cccc5ccccc45)CC3)cc2[nH]1 [Compound 222, 5-Methyl-2-(2-(methylamino)ethyl)-N-(1-(naphthalen-1-yl)cyclopropyl)-1H-indole-6-carboxamide]",100 to 1000
17,"Cc1cc2cc(CN)[nH]c2cc1C(=O)NC1(c2cccc(Br)c2)CC1 [Compound 232, 2-(Aminomethyl)-N-(1-(3-bromophenyl)cyclopropyl)-5-methyl-1H-indole-6-carboxamide]",1000 to 5000
